According to US20190307740A1, “COMPOSITIONS AND METHODS FOR TREATMENT RELATED TO FALL AND FALL FREQUENCY IN NEURODEGENERATIVE DISEASES” (Neurocea, LLC, priority 2016, published 2019):
Like-named read-outs stand apart in the source and are kept apart here.

Tests used:
[1] = tested on: rats with a unilateral 6-hydroxydopamine lesion; experiment: LIDs in rats with a unilateral 6-hydroxydopamine lesion; assay type: in vivo; settings: parkinsonian rat model of LIDs
nAChR = settings: cited from earlier work
[2] = tested on: subjects with idiopathic PD with LIDs
Protocol: (§1) At the time the study was performed (2009), there was no FDA accepted instrument for measuring treatment efficacy for LIDs. Therefore, several secondary objectives were utilized to assess efficacy including the Unified Dyskinesia Rating Scale (UDysRS).
(§2) Efficacy was measured with the Unified Dyskinesia Rating Scale (UDysRS), a semi-quantitative assessment, FDA-validated instrument to assess […] dyskinesia in PD. […] Dosing was begun at 1 mg every 6 hours to a final dose of 24 mg per day. Patients who tolerated a total daily dose of at least 16 mg per day continued in the study.
(§3) LIDs were assessed by the UDysRS, the main measure of LIDs (Table 12). […] The study was conducted in accordance with the Declaration of Helsinki and Good Clinical Practice Guidelines. All sites received approval from an institutional review board and written informed consent was obtained from each patient prior to participation.
(§4) The efficacy variables for LIDs were the mean change from baseline to week 10 in the UDysRS total score; UDysRS sub-scores (Table 12). An analysis of covariance (ANCOVA) combined features of regression and analysis of variance (ANOVA). In addition to the descriptive summary of each variable from baseline to endpoint, Least Square (LS) means standard errors and 95% Confidence intervals (CI) of each group, and the difference of LS means between the 2 treatment groups and its 95% CI are presented. A similar analysis was applied to comparisons between UPDRS Part II, UPDRS Part III.

[3] = cited from earlier work; for absorption: oral / gastrointestinal tract
[4] = tested on: subjects with idiopathic PD with LIDs; settings: during the 10-week study
Excerpt: The original UPDRS scale was used. […] In the UPDRS Part II, Question 13 is on Falling unrelated to Freezing. […] In Part II, Question 14 is on Freezing when Walking. This is a 5-point item and has two variables freezing and falls. […] Questions 13 and 14 were compared separately (Table 11).
as §4

[5] = tested on: subjects with idiopathic PD with LIDs; settings: for Study discontinuation, primary reason adverse event, n (%): 35 randomized
Protocol: as §1
A total of 65 male and female subjects with idiopathic PD with LIDs were randomized in the study. The study consisted of 4 phases (FIG. 6A): screening phase (up to 3 weeks), double-blind treatment phase (10 weeks), taper phase (2 weeks), and follow-up phase (2 weeks). The approximate duration of the study for each subject was 17 weeks. […] During the double-blind treatment phase, dosing was begun at Visit 0 at 1 mg every 6 hours (total daily dose [TDD]=4 mg/day) and escalated upwards at 2-week intervals as follows: 2 mg every 6 hours (TDD=8 mg/day) at Visit 1 (Week 2); 4 mg every 6 hours (TDD=16 mg/day) at Visit 2 (Week 4); 6 mg every 6 hours (TDD=24 mg/day) at Visit 3 (Week 6). Subjects were maintained on 24 mg/day for 4 weeks. The subsequent taper phase (2 weeks total), beginning at Visit 4 (Week 10), consisted of 9 days of drug taper and 5 days off drug prior to Visit 5 (final safety visit). […] Ondansetron was provided by the sponsor and dispensed with each dose escalation step with instructions to use it for nausea and vomiting only during the first 4 days following dose initiation or escalation. […] No other dose down-titration was allowed.
as §2
Subjects were maintained on 24 mg/day for 4 weeks. The subsequent taper phase (2 weeks total), beginning at visit 4 (Week 10), consisted of 9 days of drug taper and 5 days off drug prior to Visit 5 (final safety visit). […] No other down-titration was allowed.
as §3

[6] = tested on: subjects with idiopathic PD with LIDs; settings: Visit 4 (Week 10)
Protocol: as §1

all nAChRs = settings: cited from earlier work
[7] = Phase 2 data used for sample size

## CN[C@@H](C)C/C=C/c1cncc(OC)c1 [TC-2696]
[1]
  effect on LIDs: reduced LIDs to varying extents

## O=C(c1ccc(Cl)o1)N1CC2CNCC2C1 (centres unmarked) [AZD1446]
nAChR
  Type of agonist: Full

## c1cc2cc(-c3ccc(O[C@H]4CN5CCC4CC5)nn3)ccc2[nH]1 [ABT-107]
nAChR
  Type of agonist: Full

## Clc1cc(N2C[C@@H]3CN[C@@H]3C2)cnc1Cl [ABT-894]
nAChR
  Type of agonist: Full

## OCCCCC#Cc1cncc(OC[C@@H]2CCN2)c1 [sazetidine]
[1]
  effect on LIDs: reduced LIDs to varying extents

## c1cncc(OC[C@@H]2CCN2)c1 [A-85380]
[1]
  effect on LIDs: reduced LIDs to varying extents

## CN1CCC[C@H]1c1cccnc1 [Nicotine, (S)-3-[1-methylpyrrolidin-2-yl]pyridine, reference compound]
[2]; [7]
  UDysRS part III, Week 10 result: change from baseline, mean: 5.2
  UDysRS walking, Week 10 result: change from baseline, mean: 4.4
[2]; in vivo
  Gait-subtest of the UDysRS vs placebo: statistically superior to placebo
  dyskinesia disability (UDysRS part 3), Walking, LF-ADL and PGI-C responders vs placebo: Statistically significant differences favoring nicotine compared to placebo
[3]; in vivo
  first-pass metabolism: extensively metabolized into cotinine
  half-life: very short half-life
[3]
  absorption: well-absorbed in the gastrointestinal tract
[3]; listed as nicotine
  absorption: rapidly absorbed
[4]
  worsening of Parkinson symptoms (UPDRS Part III, Hoehn and Yahr): neither the UPDRS Part III nor the Hoehn and Yahr scales showed any worsening
[4]; listed as nicotine
  worsening of Parkinson symptoms (UPDRS Part III, Hoehn and Yahr): did not cause any worsening of the PD symptoms
[5]
  Study discontinuation, primary reason adverse event, n (%): 6 n (%)
[5]; listed as nicotine
  Study discontinuation, primary reason adverse event, n (%): Six
[5]; after taper from 24 mg/day
  impulsivity and nicotine withdrawal symptoms: no issues with impulsivity or withdrawal symptoms
[5]; oral 4 times/day up to 24 mg/day, 10 weeks
  overall safety and tolerability: safe and well tolerated
Rats and mice; in vivo
  efficacy over time: no decline in its efficacy over time
Rats and mice; oral application, injection, slow-release minipumps
  effect on LIDs: reduced LIDs
[6]; p=0.0048 vs placebo
  PGI-C responders (score of 1, 2, or 3): 21 (77.8%)
[6]; p=0.0453
  LF-ADL responders (>25% reduction from baseline), vs placebo: statistically significant difference between treatment groups
nAChR
  Type of agonist: Full
  nAChR subtype: All

## Cc1ccc(-c2ccc(OC3CN4CCC3CC4)cn2)cc1 (centres unmarked) [AQW051]
nAChR
  Type of agonist: Partial

## c1cnc2cc3c(cc2n1)[C@@H]1CNC[C@H]3C1 [Varenicline]
[1]
  effect on LIDs: reduced LIDs to varying extents
nAChR
  Type of agonist: Partial
  nAChR subtype: All
All nAChRs
  Ki: 0.1 nM

## Cc1ncccc1OC[C@@H]1CCCN1 [ABT-089]
nAChR
  Type of agonist: Partial
